Source: patent US20230114728A1 (Venatorx Pharmaceuticals, Inc., priority 2019, published 2023)
pEC50: −log10 of the molar value. ≈ marks a conversion by molar mass, not a printed value.

Legend:
E. coli K12 PBP3 = target: T1, E. coli K12 PBP3 (Escherichia coli, UniProt P0AD68); experiment: biochemical; format: binding
T1 construct: made in house
Method in brief: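 A. baumannii PBP2 (2.5 μM) and PBP3 (0.2 μM) were run in 25 mM Tris pH 8.0 buffer with Tween 20; E. coli PBP3 (1.5 μM) and N. gonorrhoeae PBP2 ([…]) in 50 mM Hepes pH 8.0 buffer.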

P. aeruginosa PAO1 = experiment: Broth microdilution MIC in CAMHB; format: cell-based; settings: Pseudomonas aeruginosa, MHB, read-out: Minimum Inhibitory Concentration, P. aeruginosa PAO1
Method: To determine the ability of test compounds to inhibit the growth of bacterial strains, classic cell based broth microdilution minimum inhibitory concentration (MIC) assays were employed. MIC assays are performed according to CLSI methods except where otherwise noted (CLSI, 2018 and CLSI, 2019). The reference type strain E. coli ATCC 25922; the wild-type parent strain E. coli AG100; the hyper-permeable E. coli 901C and E. coli D22; and the E. coli AG100A strain lacking the acrAB efflux pump encoding genes were used to determine the ability of the PBP inhibitors to penetrate the outer membrane of gram-negative bacteria and inhibit bacterial growth. […] The P. aeruginosa ATCC 27853 and A. baumannii ATCC 19606, along with the hyper-permeable P. aeruginosa ATCC 35151 and an engineered efflux pump-compromised strain of P. aeruginosa (ΔmexAB-oprM) were used to determine the ability of PBP inhibitors to penetrate the outer membrane of P. aeruginosa and A. baumannii and assess antibacterial activity against these important gram-negative organisms.
Briefly, cryo-preserved bacterial cultures of challenge strains are streaked for isolation on appropriate agar medium, in this case cation-adjusted Mueller Hinton agar. Following incubation to allow growth of the colonies, plates are sealed with parafilm and stored refrigerated for up to two weeks. For preparation of assay inoculum and to ensure low variability, at least 5 colonies are picked from the agar plates with an inoculating loop and aseptically transferred to a culture tube containing 3 mL of cation-adjusted Mueller Hinton broth (CAMHB). The broth culture is grown for 3-5 hours at 37° C. with shaking at 200 rpm. Meanwhile, 2-fold serial dilutions of test compounds are conducted in a 96-well plate with a final volume of 75 μL per well at 2-fold the final desired concentration. After the dilution plates are set up the growing cultures are then diluted in a cuvette containing CAMHB and the optical density is measured at 600 nm. The inoculum is diluted such that 75 μL of this culture in CAMHB results in a starting bacterial concentration of 2-8×10^5 CFU/mL when added to the dilution plates. The plates are incubated for 16-20 hours for Enterobacteriaceae and Pseudomonas and 20-24 hours for Acinetobacter at 37° C. The MIC values are read visually as the lowest concentration well with no bacterial growth.

E. coli ATCC 25922 = experiment: Broth microdilution MIC in CAMHB; format: cell-based; settings: Escherichia coli, ATCC25922; E. coli ATCC 25922; MHB; read-out: Minimum Inhibitory Concentration, E. coli 25922
Method in brief: (§1)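 Lowest compound concentration with no visible growth after 16-20 h at 37 °C defines MIC. Plates of 2-fold serial dilutions in cation-adjusted Mueller Hinton broth received 2-8×10^5 CFU/mL of exponentially grown cells, per CLSI methods; panel spans reference, hyper-permeable and efflux-pump-deleted strains.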

A. baumannii ATCC 19606 = experiment: Broth microdilution MIC in CAMHB; format: cell-based; settings: Acinetobacter baumannii, ATCC19606; MHB; read-out: Minimum Inhibitory Concentration, A. baumannii ATCC 19606
Method in brief: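 Hyper-permeable or efflux-deficient strains serve to probe outer-membrane penetration. Growth inhibition is scored visually after 16-20 h at 37° C in CAMHB, starting from 2-8×10^5 CFU/mL.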

P. aeruginosa ATCC 35151 = experiment: Broth microdilution MIC in CAMHB; format: cell-based; settings: Pseudomonas aeruginosa, ATCC35151; MHB; hyper-permeable strain; read-out: Minimum Inhibitory Concentration, P. aeruginosa ATCC 35151
Method in brief: as §1

E. coli 901C = experiment: Broth microdilution MIC in CAMHB; format: cell-based; settings: Escherichia coli; E. coli 901C (hyper-permeable); MHB; read-out: Minimum Inhibitory Concentration, E. coli 901C
Method in brief: as §1

E. coli AG100A = experiment: Broth microdilution MIC in CAMHB; format: cell-based; settings: Escherichia coli, read-out: Minimum Inhibitory Concentration, E. coli AG100A
Method in brief: as §1

E. coli AG100 = experiment: Broth microdilution MIC in CAMHB; format: cell-based; settings: Escherichia coli; E. coli AG100 (wild-type parent); MHB; read-out: Minimum Inhibitory Concentration, E. coli AG100
Method in brief: as §1

[1] = system: K. pneumoniae 848844 producing SHV-11 and KPC-2; experiment: Broth microdilution MIC in CAMHB; format: cell-based; settings: Klebsiella pneumoniae, read-out: Minimum Inhibitory Concentration, K. pneumoniae 848844
Method in brief: as §1

[2] = system: K. pneumoniae UMM producing SHV-5 and KPC-2; experiment: Broth microdilution MIC in CAMHB; format: cell-based; settings: Klebsiella pneumoniae, read-out: Minimum Inhibitory Concentration, K. pneumoniae UMM
Method in brief: as §1

E. coli D22 = experiment: Broth microdilution MIC in CAMHB; format: cell-based; settings: Escherichia coli; E. coli D22 (hyper-permeable); MHB; read-out: Minimum Inhibitory Concentration, E. coli D22
Method in brief: as §1

[3] = system: P. aeruginosa (ΔmexAB-oprM); experiment: Broth microdilution MIC in CAMHB; format: cell-based; settings: Pseudomonas aeruginosa, read-out: Minimum Inhibitory Concentration, P. aeruginosa ΔmexAB-OprM
Method in brief: as §1

[4] = system: K. pneumoniae SI-117 producing VIM-1; experiment: Broth microdilution MIC in CAMHB; format: cell-based; settings: Klebsiella pneumoniae, read-out: Minimum Inhibitory Concentration, K. pneumoniae SI-117
Method in brief: as §1

P. aeruginosa PBP3 = target: T2, P. aeruginosa PBP3 (Pseudomonas aeruginosa, UniProt G3XD46); experiment: Bocillin-FL fluorescence polarization competition binding assay, P. aeruginosa PBP3; settings: fluorescence polarization competition binding assay using Bocillin-FL
T2 construct: made in house
Method in brief: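 Inhibitor competition with Bocillin-FL for P. aeruginosa PBP3 was followed by fluorescence polarization on a Cytation3 (BioTek) reader, using g-factor 0.96, 490 nm excitation and 520 nm emission. The enzyme was at 0.75 μM and the probe at 0.1 μM in Hepes/NaCl/glycerol buffer, 80 μl per well. FP was recorded immediately after probe addition for up to 60 minutes. Potency was expressed as EC50, the concentration that reduces bound probe by 50%.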

T1 sequence (P0AD68 1-577): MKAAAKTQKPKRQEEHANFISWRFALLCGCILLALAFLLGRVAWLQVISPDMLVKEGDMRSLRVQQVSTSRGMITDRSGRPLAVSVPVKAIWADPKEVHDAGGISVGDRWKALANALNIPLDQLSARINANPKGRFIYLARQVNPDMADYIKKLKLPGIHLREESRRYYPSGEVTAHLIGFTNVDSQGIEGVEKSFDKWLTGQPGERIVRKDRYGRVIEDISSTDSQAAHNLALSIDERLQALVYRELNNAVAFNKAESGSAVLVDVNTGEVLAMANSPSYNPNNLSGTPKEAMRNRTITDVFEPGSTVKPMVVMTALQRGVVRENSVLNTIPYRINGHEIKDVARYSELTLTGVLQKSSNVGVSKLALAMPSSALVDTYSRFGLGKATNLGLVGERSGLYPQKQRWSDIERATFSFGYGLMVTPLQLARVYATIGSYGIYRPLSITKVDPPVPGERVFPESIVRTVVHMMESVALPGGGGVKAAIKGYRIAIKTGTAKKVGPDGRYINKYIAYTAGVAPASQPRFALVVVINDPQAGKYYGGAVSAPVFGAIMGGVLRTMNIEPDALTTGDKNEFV
T2 sequence (G3XD46 whole entry): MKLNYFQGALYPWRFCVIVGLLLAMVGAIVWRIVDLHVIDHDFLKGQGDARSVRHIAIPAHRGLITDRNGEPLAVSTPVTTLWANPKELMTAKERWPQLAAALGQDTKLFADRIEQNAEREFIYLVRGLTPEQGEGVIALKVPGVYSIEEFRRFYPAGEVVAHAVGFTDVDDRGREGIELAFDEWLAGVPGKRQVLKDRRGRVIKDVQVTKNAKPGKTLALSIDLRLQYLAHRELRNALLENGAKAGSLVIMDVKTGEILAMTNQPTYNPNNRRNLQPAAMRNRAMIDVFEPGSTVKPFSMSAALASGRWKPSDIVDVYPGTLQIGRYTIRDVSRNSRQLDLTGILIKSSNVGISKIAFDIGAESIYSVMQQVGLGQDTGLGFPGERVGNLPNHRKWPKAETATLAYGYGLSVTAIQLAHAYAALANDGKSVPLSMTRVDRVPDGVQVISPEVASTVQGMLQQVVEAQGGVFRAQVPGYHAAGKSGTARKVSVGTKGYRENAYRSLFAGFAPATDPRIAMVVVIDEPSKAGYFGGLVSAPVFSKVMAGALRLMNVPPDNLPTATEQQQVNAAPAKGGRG

Row | SMILES | pEC50 (E. coli K12 PBP3) | MIC (P. aeruginosa PAO1) | MIC (E. coli ATCC 25922) | MIC (A. baumannii ATCC 19606) | MIC (P. aeruginosa ATCC 35151) | MIC (E. coli 901C) | MIC (E. coli AG100A) | MIC (E. coli AG100) | MIC [1] | MIC [2] | MIC (E. coli D22) | MIC [3] | MIC [4] | P. aeruginosa PBP3 Potency (P. aeruginosa PBP3)
1 | CCN1CCN(C(=O)NC(C(=O)N[C@H]2Cc3ccc(SCCNCCN)c(C(=O)O)c3OB2O)c2csc(N)n2)C(=O)C1=O (stereo partly drawn) [Example 66, (3R)-7-((2-((2-aminoethyl)amino)ethyl)thio)-3-(2-(2-aminothiazol-4-yl)-2-(4-ethyl-2,3-dioxopiperazine-1-carboxamido)acetamido)-2-hydroxy-3,4-dihydro-2H-benzo[e][1,2]oxaborinine-8-carboxylic acid] | < 3.30 | > 128 µg/mL | > 128 µg/mL | > 128 µg/mL | 8 to 16 µg/mL (≈ 12.3 to 24.7 µM) | 32 to 64 µg/mL (≈ 49.3 to 98.7 µM) | 32 to 64 µg/mL (≈ 49.3 to 98.7 µM) | > 128 µg/mL | > 128 µg/mL | > 128 µg/mL | 32 to 64 µg/mL (≈ 49.3 to 98.7 µM) | > 128 µg/mL | > 128 µg/mL | 
2 | CCN1CCN(C(=O)NC(C(=O)N[C@H]2Cc3ccc(O)c(C(=O)O)c3OB2O)c2ccccc2)C(=O)C1=O (stereo partly drawn) [Example 61, (3R)-3-(2-(4-ethyl-2,3-dioxopiperazine-1-carboxamido)-2-phenylacetamido)-2,7-dihydroxy-3,4-dihydro-2H-benzo[e][1,2]oxaborinine-8-carboxylic acid] |  | > 128 µg/mL | 32 to 64 µg/mL (≈ 61 to 122 µM) | > 128 µg/mL | 8 to 16 µg/mL (≈ 15.3 to 30.5 µM) | 0.5 to 1 µg/mL (≈ 0.954 to 1.91 µM) | 32 to 64 µg/mL (≈ 61 to 122 µM) | 32 to 64 µg/mL (≈ 61 to 122 µM) | > 128 µg/mL | > 128 µg/mL | 8 to 16 µg/mL (≈ 15.3 to 30.5 µM) | > 128 µg/mL | > 128 µg/mL | B (B represents a potency between 30 μM and 500 μM inclusive)
3 | CCN1CCN(C(=O)NC(C(=O)N[C@H]2Cc3ccc(SC)c(C(=O)O)c3OB2O)c2csc(N)n2)C(=O)C1=O (stereo partly drawn) [Example 56, (3R)-3-(2-(2-aminothiazol-4-yl)-2-(4-ethyl-2,3-dioxopiperazine-1-carboxamido)acetamido)-2-hydroxy-7-(methylthio)-3,4-dihydro-2H-benzo[e][1,2]oxaborinine-8-carboxylic acid] | 3.30 to 4.52 | > 128 µg/mL | 32 to 64 µg/mL (≈ 55.5 to 111 µM) | > 128 µg/mL | 0.5 to 1 µg/mL (≈ 0.867 to 1.73 µM) | 0.5 to 1 µg/mL (≈ 0.867 to 1.73 µM) | 8 to 16 µg/mL (≈ 13.9 to 27.8 µM) | 32 to 64 µg/mL (≈ 55.5 to 111 µM) | 32 to 64 µg/mL (≈ 55.5 to 111 µM) | 8 to 16 µg/mL (≈ 13.9 to 27.8 µM) | 8 to 16 µg/mL (≈ 13.9 to 27.8 µM) | 32 to 64 µg/mL (≈ 55.5 to 111 µM) | 32 to 64 µg/mL (≈ 55.5 to 111 µM) | 
4 | CCN1CCN(C(=O)NC(C(=O)N[C@H]2Cc3ccc(SCC[N+]4(C)CCCC4)c(C(=O)O)c3OB2O)c2csc(N)n2)C(=O)C1=O.O=C([O-])C(F)(F)F (stereo partly drawn) [Example 65, 1-(2-(((3R)-3-(2-(2-aminothiazol-4-yl)-2-(4-ethyl-2,3-dioxopiperazine-1-carboxamido)acetamido)-8-carboxy-2-hydroxy-3,4-dihydro-2H-benzo[e][1,2]oxaborinin-7-yl)thio)ethyl)-1-methylpyrrolidin-1-ium 2,2,2-trifluoroacetate] | < 3.30 | > 128 µg/mL | > 128 µg/mL | > 128 µg/mL | 8 to 16 µg/mL | 32 to 64 µg/mL | 32 to 64 µg/mL | > 128 µg/mL | > 128 µg/mL | > 128 µg/mL | > 128 µg/mL | > 128 µg/mL | > 128 µg/mL | 
